{
  "source": "patent US5677274A",
  "about": "(The Government of the United States as represented by the …, priority 1993, dated 1997)",
  "system": "CHO cells",
  "type": "cell-based, Chinese Hamster",
  "data": [
    {"molecule": "CC[C@@]1([C@@H]2O[C@@H]([C@H]3O[C@@](O)(CO)[C@H](C)C[C@@H]3C)C[C@@H]2C)CC[C@H]([C@]2(C)CC[C@]3(C[C@H](O)[C@@H](C)[C@@H]([C@@H](C)[C@@H](OC)[C@H](C)C(=O)O)O3)O2)O1", "note": "[monensin]", "values": [
      {"measurement": "decrease in potency of FP33", "result": "> 100", "unit": "fold"},
      {"measurement": "protection against the other three fusion proteins", "result": "exceeded 20 fold"}
    ]}
  ]
}
